Data taken from patent publication US20240099214A1, “PLANT DEFENCE GENE EXPRESSION” (UPL Corporation Limited, priority 2021, published 2024).
Entries after “also recorded” stand apart in the source; their conditions may differ.

What was measured:
[1] = test system: Regulator of gene silencing (gene 14, AY642285.1); assay: qRT-PCR expression of gene 14 in tomato leaves; assay type: in vivo, Tomato ecotype corbarino; parameters: key to RQ1 / RQ2 / RQ3 / RQ mean: relative expression normalized to a-tubulin housekeeping gene; conditions: for gene 14 expression compared to TSWV treatment: 48 hr; for gene 14 expression: 72 hr
Experimental: (§1) Tomato ecotype “corbarino” reported to be susceptible to TSWV infection was used in the experiment. Plants were grown in pots in a climatic chamber with a photoperiod of 16/8 hour at 25° C.
(§2) The viral strain (TSWV PV PV-0393) was utilized in the experiment. The virus was mechanically inoculated and propagated on tomato “corbarino”. The inoculum was prepared in an ice-cooled mortar grounding 1 gr of infected tomato tissue in 10 ml of Na-phosphate buffer 0.01M. The fresh prepared inoculum was stored in ice before use. Tomato plants at BBCH16 were dusted with Carborundum 600 mesh and selected leaves were rubbed with some droplets of inoculum. After 5 min. plants were sprayed with sterile water to remove the excess of inoculum and preserve the cell turgor.
(§3) Four treatments were compared: i) Mock inoculated; ii) TSWV; iii) 0.25% Laminarin; iv) 0.25% Laminarin+TSWV. In the last treatment the virus was inoculated 24 hrs after the laminarin application.
(§4) Total RNA was extracted from systemic infected tomato leaves by using the Quick-RNA Plant Kit (Zymo Research) following the manufacturer instructions. The extractions were carried out using three plants after 12 h, 24 h, 48 h, 72 h, 7 days after inoculation. Leaves were instantly frozen in liquid nitrogen after cutting to avoid any deterioration of the sample as well as any defense reaction. The RNA concentration was quantified by measuring the absorbance at 260 nm using a Nanodrop 2000 (Thermofisher). The purity of all of the RNA samples was assessed at an absorbance ratio of OD260/280 and OD260/230, while its structural integrity was checked by agarose gel electrophoresis. Only high-quality RNA with OD 260/280 and OD 260/230>2 was used for subsequent steps. Single-stranded cDNA was synthesized from 1 μg of total RNA using an iScript™ Select cDNA Synthesis Kit and random hexamers as primers (Bio-Rad, Milan, Italy), according to the manufacturer's instructions. Three biological replicates were created from the 3 leaves collected to test 15 genes. Alpha tubulin was used as reference gene.
(§5) qPCR reactions were performed with BioRad (Applied Biosystems, Foster City, CA, USA) using SYBR R Green. Each reaction was performed in 20 μl containing 10 μl of 2× Power SYBR Green PCR Master Mix (Life Technologies), 0.2-0.3 μM primers and cDNA samples diluted 1:20. Each qPCR reaction was performed in triplicate. Reactions were run using the cycling parameter described previously (Reid et al., 2006) and the qPCR data were analyzed by the Ct method (Pfaffl, 2001). In order to analyze the qPCR data, a-tubulin gene was used as housekeeping to determine the relative expression level of the other genes analyzed in this work. For the determination of qPCR efficiency of each primer pairs, a standard curve was performed using the following cDNA dilutions: 1:4, 1:16, 1:64; 1:256 and 1:1024. Every measurement was made in triplicate. The corresponding qPCR efficiencies (E) were calculated for every primer pair with the software 7300 System SDS software (Applied Biosystems, Foster City, CA, USA) according to the equation E=(10−1/slope−1)×100 (Rutledge and Stewart, 2008).
(§6) The significance of the differences between the gene expressions levels were compared by one-way ANOVA (p=0.01) and the means were separated by Tukey post-hoc test using SPSS ver.26 ([…]).

[2] = test system: Pathogenesis-related protein P4 (gene 11, M69247.1); assay: qRT-PCR expression of gene 11 in tomato leaves; assay type: in vivo, Tomato ecotype corbarino; parameters: key: relative expression normalized to a-tubulin housekeeping gene
Experimental: as §1, §2, §3, §4, §5, §6

[3] = Gene_14, 12 hr, treatment Laminarin
[4] = Gene_14, 12 hr, treatment Laminarin + virus
[5] = Gene_14, 24 hr, treatment Laminarin
[6] = Gene_14, 24 hr, treatment Laminarin + virus
[7] = Gene_14, 48 hr, treatment Laminarin
[8] = Gene_14, 48 hr, treatment Laminarin + virus
[9] = Gene_14, 72 hr, treatment Laminarin
[10] = Gene_14, 72 hr, treatment Laminarin + virus

laminarin was tested, and the “gene 14 expression compared to TSWV treatment” value ([1]; 0.25% laminarin + TSWV inoculated 24 hrs later) was “inverted”, the “gene 14 expression compared to TSWV treatment” value ([1]; 0.25% laminarin alone) was “inverted” and the “gene 14 expression” value ([1]; Laminarin alone) was “no clear overexpression; also recorded: down regulation”. The “gene 14 expression” value ([1]; laminarin with TSWV) was “down regulation”, the RQ1 [1, 3] was 12.337 and the RQ2 [1, 3] was 10.845. For the same substance, the RQ3 [1, 3] was 11.390, the RQ mean [1, 3] was 11.524 and the RQ1 [1, 4] was 14.800. It also gave an RQ2 [1, 4] of 14.769, an RQ3 [1, 4] of 10.304 and an RQ mean [1, 4] of 13.291. It also gave an RQ1 [1, 5] of 15.741, an RQ2 [1, 5] of 11.640 and an RQ3 [1, 5] of 12.032. For the same substance, the RQ mean [1, 5] was 13.138, the RQ1 [1, 6] was 10.995 and the RQ2 [1, 6] was 12.080. For the same substance, the RQ3 [1, 6] was 12.197, the RQ mean [1, 6] was 11.758 and the RQ1 [1, 7] was 0.3028. For the same substance, the RQ2 [1, 7] was 0.7177, the RQ3 [1, 7] was 0.5353 and the RQ mean [1, 7] was 0.5186. For the same substance, the RQ1 [1, 8] was 0.5979, the RQ2 [1, 8] was 0.3384 and the RQ3 [1, 8] was 0.4902. It also gave an RQ mean [1, 8] of 0.4755, an RQ1 [1, 9] of 0.2805 and an RQ2 [1, 9] of 0.3706. The RQ3 [1, 9] was 0.3064, the RQ mean [1, 9] was 0.3192 and the RQ1 [1, 10] was 0.5857. For the same substance, the RQ2 [1, 10] was 0.5072, the RQ3 [1, 10] was 0.2692 and the RQ mean [1, 10] was 0.4540. The RQ1 ([2]; 12 hr, Laminarin + virus) was 12.101, the RQ2 ([2]; 12 hr, Laminarin + virus) was 11.431 and the RQ3 ([2]; 12 hr, Laminarin + virus) was 10.206. The RQ mean ([2]; 12 hr, Laminarin + virus) was 11.246, the RQ1 ([2]; 12 hr, Laminarin alone) was 0.9441 and the RQ2 ([2]; 12 hr, Laminarin alone) was 0.8925. It also gave an RQ3 ([2]; 12 hr, Laminarin alone) of 11.302, an RQ mean ([2]; 12 hr, Laminarin alone) of 0.9889 and an RQ1 ([2]; 24 hr, Laminarin + virus) of 13.862. The RQ2 ([2]; 24 hr, Laminarin + virus) was 11.424, the RQ3 ([2]; 24 hr, Laminarin + virus) was 11.236 and the RQ mean ([2]; 24 hr, Laminarin + virus) was 12.174. It also gave an RQ1 ([2]; 24 hr, Laminarin alone) of 17.183, an RQ2 ([2]; 24 hr, Laminarin alone) of 12.595 and an RQ3 ([2]; 24 hr, Laminarin alone) of 13.075. The RQ mean ([2]; 24 hr, Laminarin alone) was 14.284, the RQ1 ([2]; 48 hr, Laminarin + virus) was 28.058 and the RQ2 ([2]; 48 hr, Laminarin + virus) was 20.254. It also gave an RQ3 ([2]; 48 hr, Laminarin + virus) of 34.812, an RQ mean ([2]; 48 hr, Laminarin + virus) of 27.708 and an RQ1 ([2]; 48 hr, Laminarin alone) of 34.926. The RQ2 ([2]; 48 hr, Laminarin alone) was 33.905, the RQ3 ([2]; 48 hr, Laminarin alone) was 24.218 and the RQ mean ([2]; 48 hr, Laminarin alone) was 31.016. For the same substance, the RQ1 ([2]; 72 hr, Laminarin + virus) was 80.672, the RQ2 ([2]; 72 hr, Laminarin + virus) was 76.025 and the RQ3 ([2]; 72 hr, Laminarin + virus) was 53.346. It also gave an RQ mean ([2]; 72 hr, Laminarin + virus) of 70.014, an RQ1 ([2]; 72 hr, Laminarin alone) of 47.958 and an RQ2 ([2]; 72 hr, Laminarin alone) of 51.518. The RQ3 ([2]; 72 hr, Laminarin alone) was 48.365 and the RQ mean ([2]; 72 hr, Laminarin alone) was 49.280.
